PubChem BioAssay (NCI)
Values joined by “and” are separate entries in the source; they are usually repeats but may differ in a detail not shown here. Identical values can stand only once.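 Results reflect a 48-hour exposure of cells in 96-well plates to compound at five concentrations. GI50 marks 50% less growth. TGI: concentration producing complete growth inhibition.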

Experiments:
Test in all cases: DTP human tumour cell line panel, 48 h
[1] = test system: NCI-H460 lung
[2] = test system: TK-10 renal
[3] = test system: OVCAR-3 ovarian
[4] = test system: NCI-H23 lung
[5] = test system: SN12C renal
[6] = test system: U251 CNS
[7] = test system: NCI-H522 lung
[8] = test system: A498 renal
[9] = test system: MDA-MB-231 breast
[10] = test system: NCI/ADR-RES ovarian

Compound	TGI [1]	TGI [2]	TGI [3]	TGI [4]	TGI [5]	TGI [6]	TGI [7]	TGI [8]	TGI [9]	TGI [10]	GI50 [1]	GI50 [2]	GI50 [3]	GI50 [4]	GI50 [5] [µM]	GI50 [8]	GI50 [6]	GI50 [7] [µM]	GI50 [9]	GI50 [10]
Cc1cc(C)c2c(c1)CN1CN2Cc2cc(C)cc(C)c21	29.6 µM	37.7 µM	28.3 µM	55.4 µM	32.6 µM	32.3 µM	53.4 µM													
Nc1nc2c(ncn2Cc2ccccc2CCO)c(=O)[nH]1	> 100 µM	> 100 µM	> 100 µM	> 100 µM	> 100 µM	> 100 µM	> 100 µM	> 100 µM												
CC1(C)C(=O)C(O)=CC2C1=CCC1C2(C)C(=O)CC2(C)C(C(C)(O)C(=O)CC(O)C(C)(C)O)C(O)CC12C (stereo unspecified)	56.5 µM	5.94 µM	10.2 µM	67.1 µM	> 90.4 µM	7.58 µM	8.61 µM	4.37 µM												
CC12CC3(C)CC(C)(C1)CC(N=[N+]=[N-])(C2)C3	> 100 µM	> 100 µM	> 100 µM	> 100 µM	> 100 µM	> 100 µM	> 100 µM	> 100 µM												
Clc1ccccc1NN(Cc1ccccn1)c1ccccc1Cl			32.9 µM	50.4 µM	33.3 µM	29.6 µM	41.1 µM	34.9 µM	57.4 µM	47.7 µM										
O=C(c1ccccc1)c1c(CC(O)c2cccnc2)n(C(=O)c2ccccc2)c2ccccc12 (stereo unspecified)	36.4 µM	86.3 µM	32.9 µM	36.5 µM		30.7 µM	30.1 µM													
O=C1c2ccccc2N2OC3(N4CCCC4)CCCC3C12c1ccccc1 (stereo unspecified)				> 100 µM	> 100 µM	> 100 µM	> 100 µM	> 100 µM												
C=C(C)C1CC2C(C)=C(OC(C)=O)C1n1c(=O)c3cc4ccccc4cc3c(=O)n12 (stereo unspecified)	> 100 µM	> 100 µM	> 100 µM	> 100 µM	> 100 µM	> 100 µM	> 100 µM	> 100 µM												
CC(C)N(C(C)C)[PH+]1O[PH+](N(C(C)C)C(C)C)O[PH+](N(C(C)C)C(C)C)O[PH+](N(C(C)C)C(C)C)O[PH+](N(C(C)C)C(C)C)O1.[C-]#[O+].[C-]#[O+].[C-]#[O+].[C-]#[O+].[C-]#[O+].[C-]#[O+].[C-]#[O+].[Cr].[Cr] (stereo unspecified)	> 100 µM	> 100 µM	> 100 µM	> 100 µM	> 100 µM	> 100 µM	> 100 µM	> 100 µM			> 100 µM	> 100 µM	> 100 µM	> 100 µM	> 100	> 100 µM	> 100 µM	> 100		
O=[N+]([O-])c1ccc(N=Nc2c(O)[nH]c3ccc([N+](=O)[O-])cc23)cc1	26.4 µM	54.7 µM	42 µM	44.9 µM		41.7 µM	50.4 µM	> 100 µM												
COc1ccc(C(C2=C(C)C(=O)c3ccccc3C2=O)c2ccc(C(C)C)cc(=O)c2O)cc1 (stereo unspecified)	12.6 µM		8.54 µM		8.4 µM	10.9 µM	48.6 µM													
O=C(C(=O)c1ccc(Cc2ccc(C(=O)C(=O)c3ccccc3)cc2)cc1)c1ccccc1	> 100 µM	> 100 µM	> 100 µM	> 100 µM	> 100 µM	> 100 µM	> 100 µM	> 100 µM												
CC(=O)N(CCN)CCN	> 10 µM	> 10 µM	> 10 µM	> 10 µM	> 10 µM	> 10 µM	> 10 µM	> 10 µM												
COc1ccc(OC)c(-c2cc(-c3ccccc3)nn2-c2ccc(S(=O)(=O)NC(C)=O)cc2)c1	> 100 µM	33.1 µM	9.55 µM	21.5 µM	26.2 µM		34.8 µM		14.1 µM	11.5 µM	13.2 µM	12.8 µM	2.82 µM	8.24 µM	13.2			10.4	3.09 µM	3.38 µM
O=C(CC(C(=O)c1cccs1)c1ccc2c(c1)OCO2)c1ccc(Br)cc1 (stereo unspecified)	> 100 µM	> 100 µM		> 100 µM	> 100 µM	> 100 µM		> 100 µM	> 100 µM	> 100 µM										
CN1C2CC(C#N)C1C=CC2=O (stereo unspecified)	32.4 µM and > 100 µM	> 100 µM	30.7 µM and > 100 µM	48.6 µM and > 100 µM	> 100 µM	61.5 µM and > 100 µM		35 µM and > 100 µM	40.7 µM and > 100 µM	82.9 µM and > 100 µM	15.8 µM and 73.2 µM	40.5 µM and > 100 µM	15.5 µM and > 100 µM	16.2 µM and 60.1 µM	> 100	17.5 µM and > 100 µM	12.4 µM and 72.1 µM		19.7 µM and > 100 µM	25.7 µM and > 100 µM
COc1ccc(C2SC(N)=Nc3c2c(C)nn3C(=O)c2ccc(Cl)cc2)cc1OC (stereo unspecified)	> 10 µM	> 10 µM	> 10 µM	> 10 µM	> 10 µM	> 10 µM	> 10 µM		> 10 µM	> 10 µM										
Cc1nc2c(n1CC(C)(C)C)C(=O)c1ccccc1C2=O	> 100 µM	> 100 µM	> 100 µM	> 100 µM	> 100 µM	> 100 µM	> 100 µM													
Clc1ccc([O][In]([O]c2ccc(Cl)cn2)[O]c2ccc(Cl)cn2)nc1	> 100 µM	> 100 µM	> 100 µM	> 100 µM	> 100 µM	> 100 µM					> 100 µM	> 100 µM	> 100 µM	> 100 µM	> 100		> 100 µM			
Fc1cccc(Cl)c1C1SCc2nc3ccccc3n21 (stereo unspecified)	> 100 µM	> 100 µM	53.2 µM	80.4 µM	> 100 µM	89.7 µM	87 µM	> 100 µM												
Cc1cc(Cl)ccc1NC(=O)C(=O)Cc1nc2ccc(C(=O)c3ccccc3)cc2[nH]c1=O	> 100 µM	> 100 µM	> 100 µM	> 100 µM	> 100 µM		> 100 µM													
COc1cc(C2c3cc4c(cc3[C@@H](Nc3ccc(N(C)C)cc3)[C@H]3COC(=O)C23)OCO4)cc(OC)c1O (stereo partly specified)	1.88 µM and 10.4 µM	11.6 µM and 27.2 µM	16.9 µM	0.717 µM and 3.18 µM	2.41 µM and 3.64 µM	1.33 µM and 3.37 µM	2.29 µM and 2.56 µM	3.42 µM and 10.2 µM			< 0.0075 µM	8.85 µM		0.388 µM	0.453	0.643 µM	0.195 µM	1.18		
